From article PMC6437697 (Journal of Medicinal Chemistry, 2019)

Assays:
Test in all cases: KINOMEscan
Format in all cases: binding
Conditions in all cases: read-out: % control activity remaining
ACVR2A = biological target: T1, ACVR2A (Homo sapiens, UniProt P27037)
T1 construct: purchased Eurofins DiscoverX KINOMEscan

AURKB = biological target: T2, AURKB (Homo sapiens, UniProt Q96GD4)
T2 construct: purchased Eurofins DiscoverX KINOMEscan

DLK = biological target: T3, DLK (Homo sapiens, UniProt Q12852)
T3 construct: purchased Eurofins DiscoverX KINOMEscan
T3 sequence (Q12852 1-859): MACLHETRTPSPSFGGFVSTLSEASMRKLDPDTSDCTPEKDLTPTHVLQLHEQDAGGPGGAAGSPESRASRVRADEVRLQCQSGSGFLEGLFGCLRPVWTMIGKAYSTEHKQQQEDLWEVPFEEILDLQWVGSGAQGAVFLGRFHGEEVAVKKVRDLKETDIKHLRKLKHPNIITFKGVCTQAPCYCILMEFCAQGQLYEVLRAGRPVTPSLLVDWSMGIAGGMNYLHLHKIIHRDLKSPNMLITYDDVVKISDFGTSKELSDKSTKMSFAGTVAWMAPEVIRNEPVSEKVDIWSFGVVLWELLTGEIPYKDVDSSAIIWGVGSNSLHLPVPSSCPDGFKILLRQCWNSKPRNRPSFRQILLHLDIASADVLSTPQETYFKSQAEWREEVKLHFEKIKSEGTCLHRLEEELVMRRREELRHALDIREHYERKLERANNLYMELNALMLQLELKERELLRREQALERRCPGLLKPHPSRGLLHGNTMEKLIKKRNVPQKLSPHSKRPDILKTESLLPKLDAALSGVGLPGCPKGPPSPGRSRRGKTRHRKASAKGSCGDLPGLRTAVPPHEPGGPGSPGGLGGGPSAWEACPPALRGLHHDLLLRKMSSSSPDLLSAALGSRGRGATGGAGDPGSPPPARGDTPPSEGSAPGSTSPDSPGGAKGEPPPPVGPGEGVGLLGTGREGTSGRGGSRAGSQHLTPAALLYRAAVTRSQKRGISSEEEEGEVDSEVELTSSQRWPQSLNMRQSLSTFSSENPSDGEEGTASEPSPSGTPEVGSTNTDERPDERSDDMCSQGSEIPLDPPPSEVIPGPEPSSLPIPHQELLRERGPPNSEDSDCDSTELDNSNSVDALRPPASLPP

EPHB2 = biological target: T4, EPHB2 (Homo sapiens, UniProt P29323)
T4 construct: purchased Eurofins DiscoverX KINOMEscan
T4 sequence (P29323 19-1055): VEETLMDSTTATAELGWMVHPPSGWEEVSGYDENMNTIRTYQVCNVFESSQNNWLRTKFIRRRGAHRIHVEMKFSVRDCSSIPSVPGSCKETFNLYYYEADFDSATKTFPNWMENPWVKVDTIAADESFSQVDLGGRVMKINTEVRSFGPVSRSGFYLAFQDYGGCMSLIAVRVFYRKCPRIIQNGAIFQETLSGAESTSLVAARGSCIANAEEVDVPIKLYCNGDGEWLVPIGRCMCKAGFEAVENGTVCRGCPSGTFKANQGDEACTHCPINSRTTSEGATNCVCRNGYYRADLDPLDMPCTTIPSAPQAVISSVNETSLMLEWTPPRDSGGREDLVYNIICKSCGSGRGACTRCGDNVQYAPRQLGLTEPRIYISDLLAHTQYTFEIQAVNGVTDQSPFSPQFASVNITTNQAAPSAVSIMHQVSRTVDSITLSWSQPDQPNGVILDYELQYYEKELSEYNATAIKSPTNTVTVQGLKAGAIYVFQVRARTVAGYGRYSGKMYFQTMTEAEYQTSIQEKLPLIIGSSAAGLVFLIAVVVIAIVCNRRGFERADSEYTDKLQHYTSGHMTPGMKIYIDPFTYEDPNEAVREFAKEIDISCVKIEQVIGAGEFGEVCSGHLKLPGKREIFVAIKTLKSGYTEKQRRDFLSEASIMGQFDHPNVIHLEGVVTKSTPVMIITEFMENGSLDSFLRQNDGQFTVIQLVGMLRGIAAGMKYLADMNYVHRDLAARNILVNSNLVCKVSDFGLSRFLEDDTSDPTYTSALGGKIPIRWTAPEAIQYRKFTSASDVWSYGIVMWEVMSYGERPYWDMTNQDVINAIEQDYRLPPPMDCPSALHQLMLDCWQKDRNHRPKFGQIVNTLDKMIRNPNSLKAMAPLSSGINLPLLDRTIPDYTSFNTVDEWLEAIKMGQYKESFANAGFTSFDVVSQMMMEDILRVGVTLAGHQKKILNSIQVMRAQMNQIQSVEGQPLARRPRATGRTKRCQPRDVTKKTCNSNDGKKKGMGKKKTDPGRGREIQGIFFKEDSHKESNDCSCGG

MEK3 = biological target: T5, MEK3 (Homo sapiens, UniProt P46734)
T5 construct: purchased Eurofins DiscoverX KINOMEscan
T5 sequence (P46734 1-347): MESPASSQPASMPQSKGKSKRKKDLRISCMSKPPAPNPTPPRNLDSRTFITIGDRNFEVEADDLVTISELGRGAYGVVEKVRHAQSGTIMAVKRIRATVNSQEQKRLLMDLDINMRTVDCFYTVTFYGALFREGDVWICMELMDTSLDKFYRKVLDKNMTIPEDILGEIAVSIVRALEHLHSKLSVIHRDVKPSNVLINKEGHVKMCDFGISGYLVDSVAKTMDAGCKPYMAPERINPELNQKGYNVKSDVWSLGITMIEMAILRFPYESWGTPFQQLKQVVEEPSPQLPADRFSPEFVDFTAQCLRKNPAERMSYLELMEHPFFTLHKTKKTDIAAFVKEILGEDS

PIK3CG = biological target: T6, PIK3CG (Homo sapiens, UniProt P48736)
T6 construct: purchased Eurofins DiscoverX KINOMEscan
T6 sequence (P48736 whole entry): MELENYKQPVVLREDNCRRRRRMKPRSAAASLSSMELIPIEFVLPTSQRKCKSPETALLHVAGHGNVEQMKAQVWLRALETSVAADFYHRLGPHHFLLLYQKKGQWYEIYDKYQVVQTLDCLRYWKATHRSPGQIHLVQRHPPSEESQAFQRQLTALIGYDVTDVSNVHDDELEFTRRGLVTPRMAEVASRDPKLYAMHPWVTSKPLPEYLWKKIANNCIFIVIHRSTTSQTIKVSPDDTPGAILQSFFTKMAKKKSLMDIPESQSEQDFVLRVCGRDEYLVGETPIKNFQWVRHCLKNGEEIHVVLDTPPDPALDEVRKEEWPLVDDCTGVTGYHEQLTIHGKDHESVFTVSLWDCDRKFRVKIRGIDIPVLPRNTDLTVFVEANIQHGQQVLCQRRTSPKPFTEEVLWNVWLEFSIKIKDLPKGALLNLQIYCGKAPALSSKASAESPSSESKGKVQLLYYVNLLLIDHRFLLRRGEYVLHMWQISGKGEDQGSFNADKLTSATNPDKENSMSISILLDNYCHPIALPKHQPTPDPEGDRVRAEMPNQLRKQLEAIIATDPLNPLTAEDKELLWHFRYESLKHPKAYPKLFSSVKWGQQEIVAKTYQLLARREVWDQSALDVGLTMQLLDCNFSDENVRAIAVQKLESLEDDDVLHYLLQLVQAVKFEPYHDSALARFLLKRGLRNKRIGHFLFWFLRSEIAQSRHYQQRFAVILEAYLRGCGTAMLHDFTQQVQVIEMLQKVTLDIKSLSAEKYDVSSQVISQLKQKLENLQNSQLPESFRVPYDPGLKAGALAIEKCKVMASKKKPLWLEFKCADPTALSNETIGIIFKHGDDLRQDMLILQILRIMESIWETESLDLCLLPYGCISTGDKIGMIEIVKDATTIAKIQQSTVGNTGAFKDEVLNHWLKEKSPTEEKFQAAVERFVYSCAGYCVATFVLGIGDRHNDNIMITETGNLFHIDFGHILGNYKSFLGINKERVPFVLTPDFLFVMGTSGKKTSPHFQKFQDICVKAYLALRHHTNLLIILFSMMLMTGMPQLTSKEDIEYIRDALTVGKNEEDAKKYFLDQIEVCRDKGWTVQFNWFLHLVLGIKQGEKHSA

T1 sequence (P27037 20-513): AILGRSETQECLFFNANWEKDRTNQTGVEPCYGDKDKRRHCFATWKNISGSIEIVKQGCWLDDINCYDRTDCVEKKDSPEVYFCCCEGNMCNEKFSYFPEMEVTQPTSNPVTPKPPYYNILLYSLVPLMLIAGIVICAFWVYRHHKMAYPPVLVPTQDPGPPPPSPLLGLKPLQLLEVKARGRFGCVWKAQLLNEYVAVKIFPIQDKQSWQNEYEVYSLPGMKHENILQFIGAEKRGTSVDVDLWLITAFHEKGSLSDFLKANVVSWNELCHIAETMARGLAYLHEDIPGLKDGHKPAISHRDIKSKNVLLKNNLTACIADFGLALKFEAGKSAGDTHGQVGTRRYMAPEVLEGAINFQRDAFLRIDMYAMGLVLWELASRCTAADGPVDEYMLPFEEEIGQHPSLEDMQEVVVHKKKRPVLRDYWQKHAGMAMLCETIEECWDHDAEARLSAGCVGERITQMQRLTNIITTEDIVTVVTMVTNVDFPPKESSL
T2 sequence (Q96GD4 whole entry): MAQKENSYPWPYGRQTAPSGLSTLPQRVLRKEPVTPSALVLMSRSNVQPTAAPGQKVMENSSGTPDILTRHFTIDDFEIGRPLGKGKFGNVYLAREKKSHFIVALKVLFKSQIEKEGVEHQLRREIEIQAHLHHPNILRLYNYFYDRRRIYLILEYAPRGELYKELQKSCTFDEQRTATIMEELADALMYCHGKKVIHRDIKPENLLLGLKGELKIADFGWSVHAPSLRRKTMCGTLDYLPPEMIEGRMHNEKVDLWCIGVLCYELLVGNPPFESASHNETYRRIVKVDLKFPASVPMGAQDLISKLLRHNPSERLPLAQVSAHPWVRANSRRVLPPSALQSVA

Compound | remaining binding at 1 µM (ACVR2A) | remaining binding at 1 µM (AURKB) | remaining binding at 1 µM (DLK) | remaining binding at 1 µM (EPHB2) | remaining binding at 1 µM (MEK3) | remaining binding at 1 µM (PIK3CG)
Clc1cc(NCC2CC2)c2ncc(-c3ccc4[nH]ncc4c3)n2n1 [compound 2, 6-Chloro-N-(cyclopropylmethyl)-3-(1H-indazol-5-yl)imidazo[1,2-b]pyridazin-8-amine] | 100% | 90% | 89% | 83% | 87% | 78%
O=C(CN1CCOCC1)N[C@H]1CC[C@H](Nc2cc(Cl)nn3c(-c4ccc5[nH]ncc5c4)cnc23)CC1 [compound 26] | 100% | 55% | 83% | 94% | 100% | 100%
CN1CCC(CNc2cc(Cl)nn3c(-c4cc5nc(Nc6ccccc6)[nH]c5cc4F)cnc23)CC1 [compound 31, 6-Chloro-3-(6-fluoro-2-(phenylamino)-1H-benzo[d]imidazol-5-yl)-N-((1-methylpiperidin-4-yl)methyl)imidazo[1,2-b]pyridazin-8-amine] | 97% | 83% | 100% | 96% | 88% | 100%
